Experimental data from US11780826B2 (Amgen Inc., priority 2017, dated 2023).

What follows are compounds tested on Bovine cardiac myofibrils (assay: In vitro model of dose-dependent myofibril ATPase modulation (AC1.4, pyruvate kinase/lactate dehydrogenase-coupled ATPase assay at pCa25)). Conditions: concentration at which ATPase activity was 1.4-fold higher than the bottom of the dose curve, mean of a minimum of two independent tests.
Format: biochemical
Outline: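 Compound dilutions were premixed with myofibrils, coupling enzymes, EGTA and CaCl2, then the reaction was started with an equal volume carrying ATP (final 1 mM), NADH and PEP. ATP turnover was followed at 340 nm, and dose responses were fit to a four-parameter equation.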
With `CS(=O)(=O)c1ccc(C(=O)N2CCC[C@@H]2C(=O)N[C@@H](c2ccc(C(F)(F)F)cc2F)C2CC2)cn1` [Example 505, N-((R)-cyclopropyl(2-fluoro-4-(trifluoromethyl)phenyl)methyl)-1-((6-(methylsulfonyl)-3-pyridinyl)carbonyl)-D-prolinamidev] the AC1.4 was 2.1945 µM. Work on `CS(=O)(=O)c1cccc(C(=O)N2C[C@H](O)C[C@@H]2C(=O)N[C@@H](c2ccc(C(F)(F)F)cc2F)C2CC2)c1` [Example 506, (4R)-N-((R)-cyclopropyl(2-fluoro-4-(trifluoromethyl)phenyl)methyl)-4-hydroxy-1-(3-(methylsulfonyl)benzoyl)-D-prolinamide] yielded an AC1.4 of 2.23 µM. `N#CC1CC(S(=O)(=O)c2cccc(C(=O)N3CCC[C@@H]3C(=O)NCc3ccc(C(F)(F)F)nc3)c2)C1` (stereo partly drawn) [Example 507, (R)-1-(3-((3-cyanocyclobutyl)sulfonyl)benzoyl)-N-((6-(trifluoromethyl)pyridin-3-yl)methyl)pyrrolidine-2-carboxamide] was tested, and the AC1.4 was 2.38 µM. `Cc1ccc(F)cc1CNC(=O)[C@H]1CCCN1C(=O)[C@H]1CCCN(S(=O)(=O)N2CC(C#N)C2)C1` [Example 508, 1-(((3S)-1-((3-cyano-1-azetidinyl)sulfonyl)-3-piperidinyl)carbonyl)-N-(5-fluoro-2-methylbenzyl)-D-prolinamide] was tested, and the AC1.4 was 2.3805 µM. Work on `CCC1(O)CN(S(=O)(=O)N2CCC[C@H](C(=O)N3CCC[C@@H]3C(=O)NCc3ccc(C(F)(F)F)cc3F)C2)C1` [Example 509, 1-(((3S)-1-((3-ethyl-3-hydroxy-1-azetidinyl)sulfonyl)-3-piperidinyl)carbonyl)-N-(2-fluoro-4-(trifluoromethyl)benzyl)-D-prolinamide] yielded an AC1.4 of 2.3995 µM. Compound `CS(=O)(=O)c1cc(C(=O)N2C[C@@H](F)C[C@@H]2C(=O)N[C@@H](c2cc(F)c(Cl)cc2F)C2CC2)ccn1` [Example 510, (4S)-N-((R)-(4-chloro-2,5-difluorophenyl)(cyclopropyl)methyl)-4-fluoro-1-((2-(methylsulfonyl)-4-pyridinyl)carbonyl)-D-prolinamide] has an AC1.4 of 2.2505 µM. For `C[C@@H](NC(=O)[C@H]1CCCN1C(=O)[C@@H]1CN(S(=O)(=O)N2CC(C#N)C2)CCN1)c1ccc(Cl)cc1` [Example 511, N-((1R)-1-(4-chlorophenyl)ethyl)-1-(((2S)-4-((3-cyano-1-azetidinyl)sulfonyl)-2-piperazinyl)carbonyl)-D-prolinamide], the AC1.4 was 2.4195 µM. `CS(=O)(=O)c1cncc(C(=O)N2C[C@H]3C[C@H]3[C@@H]2C(=O)N[C@@H](c2cc(F)c(Cl)cc2F)C2CC2)c1` [Example 512, (1R,2R,5S)-N-((R)-(4-chloro-2,5-difluorophenyl)(cyclopropyl)methyl)-3-((5-(methylsulfonyl)-3-pyridinyl)carbonyl)-3-azabicyclo[3.1.0]hexane-2-carboxamide] gave an AC1.4 of 2.252 µM. Compound `CCS(=O)(=O)c1cccc(C(=O)N2[C@@H](C(=O)N[C@H](C)c3cc(F)c(Cl)cc3F)C[C@H]3C[C@H]32)c1` [Example 513, (1R,3R,5R)-N-((1R)-1-(4-chloro-2,5-difluorophenyl)ethyl)-2-(3-(ethylsulfonyl)benzoyl)-2-azabicyclo[3.1.0]hexane-3-carboxamide] has an AC1.4 of 2.3655 µM. `N#CC1CN(S(=O)(=O)N2CCCC(F)(C(=O)N3CCC[C@@H]3C(=O)NCc3ccc(C(F)(F)F)cc3)C2)C1` (stereo partly drawn) [Example 514, (2R)-1-(1-((3-cyanoazetidin-1-yl)sulfonyl)-3-fluoropiperidine-3-carbonyl)-N-(4-(trifluoromethyl)benzyl)pyrrolidine-2-carboxamide] gave an AC1.4 of 2.433 µM. For `N#CC1CN(S(=O)(=O)N2CCC[C@H](C(=O)N3CCC[C@@H]3C(=O)NCc3ncc(C(F)(F)F)cc3F)C2)C1` [Example 515, 1-(((3S)-1-((3-cyano-1-azetidinyl)sulfonyl)-3-piperidinyl)carbonyl)-N-((3-fluoro-5-(trifluoromethyl)-2-pyridinyl)methyl)-D-prolinamide], the AC1.4 was 2.441 µM. In the case of `N#CC1CN(S(=O)(=O)N2CCC[C@H](C(=O)N3CCC[C@@H]3C(=O)NCc3cccc(F)c3F)C2)C1` [Example 516, 1-(((3S)-1-((3-cyano-1-azetidinyl)sulfonyl)-3-piperidinyl)carbonyl)-N-(2,3-difluorobenzyl)-D-prolinamide], the AC1.4 was 2.446 µM. With `N#CC1CN(S(=O)(=O)N2CCO[C@H](C(=O)N3CCC[C@@H]3C(=O)NCc3cc(F)cc(F)c3)C2)C1` [Example 517, 1-(((2S)-4-((3-cyano-1-azetidinyl)sulfonyl)-2-morpholinyl)carbonyl)-N-(3,5-difluorobenzyl)-D-prolinamide] the AC1.4 was 2.4485 µM. For `COC(=O)C1CC(S(=O)(=O)N2CCC[C@H](C(=O)N3CCC[C@@H]3C(=O)NCc3ccc(C(F)(F)F)cc3)C2)C1` (stereo partly drawn) [Example 518, methyl3-(((S)-3-((R)-2-((4-(trifluoromethyl)benzyl)carbamoyl)pyrrolidine-1-carbonyl)piperidin-1-yl)sulfonyl)cyclobutanecarboxylate], the AC1.4 was 2.457 µM. `CN1CC(C(NC(=O)[C@H]2C[C@H]3C[C@H]3N2C(=O)c2cccc(S(C)(=O)=O)c2)c2ccc(C(F)(F)F)cc2F)CC1=O` (stereo partly drawn) [Example 519, (1R,3R,5R)-N-((2-fluoro-4-(trifluoromethyl)phenyl)(1-methyl-5-oxopyrrolidin-3-yl)methyl)-2-(3-(methylsulfonyl)benzoyl)-2-azabicyclo[3.1.0]hexane-3-carboxamide] was tested, and the AC1.4 was 2.367 µM. In the case of `Cc1ccc(CNC(=O)[C@H]2CCCN2C(=O)c2cccc(S(=O)(=O)N3CC(C#N)C3)c2)nc1` [Example 520, 1-(3-((3-cyano-1-azetidinyl)sulfonyl)benzoyl)-N-((5-methyl-2-pyridinyl)methyl)-D-prolinamide], the AC1.4 was 2.5075 µM. `CCNc1ccccc1C(=O)N1CCC[C@@H]1C(=O)N[C@@H](c1ccc(C(F)(F)F)cc1F)C1CC1` [Example 521, N-((R)-cyclopropyl(2-fluoro-4-(trifluoromethyl)phenyl)methyl)-1-(2-(ethylamino)benzoyl)-D-prolinamide] was tested, and the AC1.4 was 2.551 µM. With `CCS(=O)(=O)c1cccc(C(=O)N2[C@@H](C(=O)N[C@@H](c3ccc(C(F)(F)F)cc3)C3(O)CCC3)C[C@H]3C[C@H]32)c1` [Example 522, (1R,3R,5R)-2-(3-(ethylsulfonyl)benzoyl)-N-((S)-(1-hydroxycyclobutyl)(4-(trifluoromethyl)phenyl)methyl)-2-azabicyclo[3.1.0]hexane-3-carboxamide] the AC1.4 was 2.4145 µM. `O=C(N[C@@H](c1ccc(C(F)(F)F)cc1F)C1CC1)[C@H]1CCCN1C(=O)c1cccc(C(O)(O)C(F)(F)F)c1` [Example 523, (R)—N—((R)-cyclopropyl(2-fluoro-4-(trifluoromethyl)phenyl)methyl)-1-(3-(2,2,2-trifluoro-1,1-dihydroxyethyl)benzoyl)pyrrolidine-2-carboxamide] was tested, and the AC1.4 was 2.582 µM. `N#CC1CN(S(=O)(=O)N2CCC[C@H](C(=O)N3CCC[C@@H]3C(=O)NC(c3cc(F)ccc3F)C(F)F)C2)C1` (stereo partly drawn) [Example 524, (2R)-1-((S)-1-((3-cyanoazetidin-1-yl)sulfonyl)piperidine-3-carbonyl)-N-(1-(2,5-difluorophenyl)-2,2-difluoroethyl)pyrrolidine-2-carboxamide] gave an AC1.4 of 2.583 µM.
